# Paper PMC11106742, “Computational Design of Cyclic Peptide Inhibitors of a Bacterial Membrane Lipoprotein Peptidase” (ACS Chemical Biology, 2024)
# Numbered stars: 1 amine (or outer) side, 2 acyl side, 3 side chain; on linkers, the order of the positions; unused ones are H or OH. Square brackets hold non-standard residues; d marks the D form. Peptide text beside a SMILES is read from it. X1 = CCCCCCCCN([C@@H](C)C(=O)[*:2])[*:1]; X2 = CCCCC[C@@H](C)N(CC(=O)[*:2])[*:1]; Gly(N-dodecyl) = CCCCCCCCCCCCNCC(=O)O; aIle = CC[C@@H](C)[C@H](N)C(=O)O; aThr = C[C@H](O)[C@H](N)C(=O)O; NMeL = CN[C@@H](CC(C)C)C(=O)O; βAla = NCCC(=O)O
# Legend:
# E. coli ATCC25922 = experiment: microbe, parasite or virus in culture; format: cell-based, Escherichia coli; details: ATCC25922
# Method: (§1) MIC values were determined in cation-adjusted Mueller-Hinton broth using the broth microdilution method according to CLSI guidelines. Plates were incubated for 16 to 24 h at 37 °C.
# (§2) Six biological replicates were performed across three different 2-fold dilution series, starting at concentration of 100 µg/ml, 80 µg/ml or 64 µg/ml. The lowest concentration of antimicrobial inhibiting growth was taken as the MIC. This was established by visual inspection of the medium after the incubation period with a lack of turbidity of the growth medium indicating no growth.[3] […]
# A. baumannii AB5075 = experiment: microbe, parasite or virus in culture; format: cell-based, Acinetobacter baumannii; details: AB5075
# Method: as §1, §2
# A. baumannii AB17978 = experiment: microbe, parasite or virus in culture; format: cell-based, Acinetobacter baumannii; details: AB17978
# Method: as §1, §2
# PaLspA = target: T1, PaLspA (Pseudomonas aeruginosa, UniProt Q9HVM5); experiment: biochemical
# T1 construct: made in house
# T1 sequence (Q9HVM5 1-169): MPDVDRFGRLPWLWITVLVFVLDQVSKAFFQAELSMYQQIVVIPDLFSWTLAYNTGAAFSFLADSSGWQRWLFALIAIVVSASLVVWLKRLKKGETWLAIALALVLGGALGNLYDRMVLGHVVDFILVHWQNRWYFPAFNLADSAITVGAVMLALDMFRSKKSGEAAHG
# Method: These analogues were tested for activity against PaLspA using an in vitro fluorescence resonance energy transfer (FRET) activity assay.[21] LspA inhibition was detected by a change in fluorescence upon cleavage of a FRET peptide substrate containing an N-terminal quencher moiety and a C-terminal fluorophore.
# (A) Structures of G2a and G2d. (B) Results of the FRET dose–response assays. PaLspA concentration was 40 nM, FRET substrate concentration was 50 μM, and the concentration of inhibitors globomycin, G2a, and G2d ranged from 0–3,000 nM. (C) SDS-PAGE gels and quantitation of the PaLspA gel-shift dose–response assays. ppICP concentration was 12 μM, DOPG concentration was 600 μM, and Lgt concentration was 1.2 μM. The Lgt-catalyzed reaction was allowed to proceed for 60 min at 37 °C, after which inhibitors (0–1000 nM) were added. The PaLspA reaction was initiated by the addition of 100 nM enzyme. The LspA reaction was allowed to proceed for 30 min at 37 °C before being quenched with SDS-PAGE loading buffer (62.5 mM Tris/HCl pH 6.8, 2.5% (w/v) SDS, 0.002% (w/v) bromophenol blue, 0.5 M β-mercaptoethanol, 10% (v/v) glycerol). Quantitation of the gel-shift assays was performed using Image Lab, and data were plotted using GraphPad Prism.
# Materials: All reagents were obtained from commercial sources and used without additional purification. All aqueous solutions were prepared using ultrapure laboratory grade water (deionized, filtered, and sterilized) obtained from an in-house ELGA water purification system. […]
# Expression and purification of PaLspA, Lgt, EcLspA and ppICP: PaLspA, Lgt and pre-proICP (ppICP) were expressed and purified using previously published protocols (Vogely et al, 2016).[1] EcLspA was expressed and purified as described for PaLspA, with the following modification. The lysis buffer was 50 mM Hepes pH 7.5, 150 mM NaCl, 1 mM TCEP, 10 %(v/v) glycerol. Isolated membranes, containing EcLspA, were solubilized with 1 %(v/v) FC12 for 2 h at […]
# P. aeruginosa 950 = experiment: microbe, parasite or virus in culture; format: cell-based, Pseudomonas aeruginosa; details: 950
# Method: as §1, §2
SMILES,MIC (E. coli ATCC25922),MIC (A. baumannii AB5075),MIC (A. baumannii AB17978),IC50 (PaLspA),MIC (P. aeruginosa 950)
CCCCC[C@@H](C)N1CC(=O)N(C)[C@@H](CC(C)C)C(=O)N[C@@H]([C@H](C)CC)C(=O)N[C@@H](CO)C(=O)N[C@@H]([C@H](C)O)C(=O)NCCC1=O [G1b] (cyclo([NMeL][aIle]S[aThr][βAla][X2])),32 µg/mL,25 µg/mL,16 µg/mL,3680 ± 420 nM,32 µg/mL
CCCCCCCCN1C(=O)CCNC(=O)[C@H]([C@H](C)O)NC(=O)[C@H](CO)NC(=O)[C@H]([C@H](C)CC)NC(=O)[C@H](CC(C)C)N(C)C(=O)[C@@H]1C [G2a] (cyclo([NMeL][aIle]S[aThr][βAla][X1])),32 µg/mL,16 µg/mL,12.5 µg/mL,304 ± 62 nM,32 µg/mL
CCCCCCCCCCCCN1CC(=O)N(C)[C@@H](CC(C)C)C(=O)N[C@@H]([C@H](C)CC)C(=O)N[C@@H](CO)C(=O)N[C@@H]([C@H](C)O)C(=O)NCCC1=O [G2d] (cyclo([NMeL][aIle]S[aThr][βAla][Gly(N-dodecyl)])),32 µg/mL,16 µg/mL,16 µg/mL,157 ± 25 nM,32 µg/mL
